# Laboratory results from paper PMC5992111, “Heterocyclization of polarized system: synthesis, antioxidant and anti-inflammatory 4-(pyridin-3-yl)-6-(thiophen-2-yl) pyrimidine-2-thiol derivatives” (Chemistry Central Journal, 2018).
# Marks after values point to notes of the source that are not given here.
# How the values were obtained:
# lipid peroxidation = test: Lipid peroxidation assay
# Method: • Lipid peroxidation assay (5 and 6) was calculated as IC50 and recorded in Table 3.
# [1] = DPPH free radical scavenging assay; conditions: for scavenging activity towards the DPPH radicals (in words): compared with ascorbic acid
# Method: • DPPH free radical scavenging assay was determined (4). Ascorbic acid was used as reference standard antioxidant.
# ovine COX-2 = target: T1, ovine COX-2 (Ovis aries, UniProt P79208); test: In vitro COX-2 inhibition, colorimetric ovine COX-1/COX-2 inhibitor screening assay kit; type: biochemical; conditions: for COX-1/COX-2 selectivity index: IC50 (COX-1)/IC50 (COX-2); for IC50: means of three determinations, read at 590 nm, read-out: IC 50 (µM) COX-2; for inhibitory activity against COX-2 (in words): compared with the standard drug celecoxib
# T1 construct: purchased
# T1 sequence (P79208 17-603): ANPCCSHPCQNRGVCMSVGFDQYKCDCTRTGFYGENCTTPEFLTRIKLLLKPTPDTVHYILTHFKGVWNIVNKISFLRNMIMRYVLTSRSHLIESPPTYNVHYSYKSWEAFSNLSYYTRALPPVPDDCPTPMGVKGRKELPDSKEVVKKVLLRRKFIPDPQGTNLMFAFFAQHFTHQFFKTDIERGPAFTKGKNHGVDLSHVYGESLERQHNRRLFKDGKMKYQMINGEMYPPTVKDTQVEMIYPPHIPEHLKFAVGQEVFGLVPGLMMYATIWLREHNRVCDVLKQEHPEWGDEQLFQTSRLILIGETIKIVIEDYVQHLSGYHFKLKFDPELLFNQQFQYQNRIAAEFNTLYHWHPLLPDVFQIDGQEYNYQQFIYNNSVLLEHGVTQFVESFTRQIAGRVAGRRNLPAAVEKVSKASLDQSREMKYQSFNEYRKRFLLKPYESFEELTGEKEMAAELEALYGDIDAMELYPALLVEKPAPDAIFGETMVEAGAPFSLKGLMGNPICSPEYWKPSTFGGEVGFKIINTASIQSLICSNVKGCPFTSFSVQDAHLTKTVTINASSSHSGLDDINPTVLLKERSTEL
# ovine COX-1 = target: T2, ovine COX-1 (Ovis aries, UniProt P05979); test: In vitro COX-1 inhibition, colorimetric ovine COX-1/COX-2 inhibitor screening assay kit; type: biochemical; conditions: for IC50: means of three determinations, read at 590 nm, read-out: IC 50 (µM) COX-1; for inhibitory activity against COX-1 (in words): compared with the standard drug celecoxib
# T2 construct: purchased
# T2 sequence (P05979 25-600): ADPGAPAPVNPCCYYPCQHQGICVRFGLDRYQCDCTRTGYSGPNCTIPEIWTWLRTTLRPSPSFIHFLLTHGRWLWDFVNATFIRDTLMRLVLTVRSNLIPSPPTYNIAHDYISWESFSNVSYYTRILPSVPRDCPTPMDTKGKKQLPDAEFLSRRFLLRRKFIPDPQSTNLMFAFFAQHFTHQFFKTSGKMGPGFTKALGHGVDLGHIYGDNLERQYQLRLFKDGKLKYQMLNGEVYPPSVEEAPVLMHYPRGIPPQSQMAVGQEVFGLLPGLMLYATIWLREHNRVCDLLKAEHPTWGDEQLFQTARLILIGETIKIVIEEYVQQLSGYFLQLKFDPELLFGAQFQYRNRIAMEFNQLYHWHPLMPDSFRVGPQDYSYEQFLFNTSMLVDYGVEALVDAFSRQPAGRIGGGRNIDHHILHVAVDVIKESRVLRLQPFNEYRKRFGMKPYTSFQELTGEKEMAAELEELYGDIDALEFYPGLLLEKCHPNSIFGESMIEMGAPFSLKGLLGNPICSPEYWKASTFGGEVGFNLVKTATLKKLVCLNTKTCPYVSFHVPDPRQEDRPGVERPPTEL
# [2] = test system: carrageenan induced rat paw edema; test: Carrageenan induced rat paw edema; type: in vivo; conditions: mean ± SD
# Method: Carrageenan induced rat paw edema in rats: Fifty rats were divided into ten groups (i.e., each group, five rats). The first group (control), received carboxymethyl cellulose. The second group was given diclofenac sodium as a standard anti-inflammatory drug. Groups (3–10) were orally given the newly synthesized compounds (3–6) in two dosages (5 and 10 mg/kg). Results were expressed as rat paw edema percent. One hour later after administration of tested doses, carrageenan was injected sub planter in the left hind footpad of each rat as 0.05 ml of 1% solution in sterile distilled water. Plethysmometer was used to measure paw edema volume from 0 to 4 h after carrageenan injection. Paw edema volume was compared with vehicle control group and reduction percent was calculated as the following %reduction in edema=1-Vt Vc×100 Where Vt and Vc are the edema volume in the group treated with drug and control, respectively. Results were expressed as mean ± standard deviation (SD). Differences between means were tested for significance using a one-way analysis of variance (ANOVA) followed by Duncan’s test (Table 2).
# [3] = 5 mg/kg.b.wt oral, 0 h after carrageenan
# [4] = 5 mg/kg.b.wt oral, 1 h after carrageenan
# [5] = 5 mg/kg.b.wt oral, 2 h after carrageenan
# [6] = 5 mg/kg.b.wt oral, 3 h after carrageenan
# [7] = 5 mg/kg.b.wt oral, 4 h after carrageenan
# [8] = 10 mg/kg.b.wt oral, 0 h after carrageenan
# [9] = 10 mg/kg.b.wt oral, 1 h after carrageenan
# [10] = 10 mg/kg.b.wt oral, 2 h after carrageenan
# [11] = 10 mg/kg.b.wt oral, 3 h after carrageenan
# [12] = 10 mg/kg.b.wt oral, 4 h after carrageenan
Compound,IC50 (μg/ml) for anti-lipid peroxidation (lipid peroxidation) [µg/mL],IC50 (μg/ml) for DPPH Scavenging [1] [µg/mL],COX-1/COX-2 selectivity index (ovine COX-2),IC50 (ovine COX-2) [µM],melting point [°C],IC50 (ovine COX-1) [µM],"Inhibition percent of rat paw edema [2, 3]","Inhibition percent of rat paw edema [2, 4]","Inhibition percent of rat paw edema [2, 5]","Inhibition percent of rat paw edema [2, 6]","Inhibition percent of rat paw edema [2, 7]","Inhibition percent of rat paw edema [2, 8]","Inhibition percent of rat paw edema [2, 9]","Inhibition percent of rat paw edema [2, 10]","Inhibition percent of rat paw edema [2, 11]","Inhibition percent of rat paw edema [2, 12]",also measured
"O=C(/C=C/c1cccs1)c1cccnc1 [Compound 3, (E)-1-(pyridin-3-yl)-3-(thiophen-2-yl) prop-2-en-1-one]",16.81 ± 2.71,10.72 ± 0.54,9.49,0.39,256 to 258,3.7,0.48 ± 0.027^ab %,21.72 ± 0.79^b %,22.79 ± 1.07^d %,24.79 ± 0.49^c %,28.41 ± 1.30^c %,0.47 ± 0.04^ab %,31.98 ± 9.35^a %,29.93 ± 1.43^b %,34.16 ± 0.61^b %,41.15 ± 0.750^a %,scavenging activity towards the DPPH radicals (in words) [1]: higher scavenging activity towards the DPPH radicals than that of ascorbic acid
"N#Cc1c(-c2cccs2)cc(-c2cccnc2)oc1=O [Compound 6, 2-oxo-6-(pyridin-3-yl)-4-(thiophen-2-yl)-2H-pyran-3-carbonitrile]",22.67 ± 3.51,15.26 ± 0.44,5.89,0.84,210 to 212,4.95,0.50 ± 0.02^a %,9.61 ± 1.12^e %,12.28 ± 1.38^h %,17.19 ± 1.26^e %,18.51 ± 2.26^e %,0.49 ± 0.01^a %,13.75 ± 1.15^de %,17.52 ± 1.13^f %,20.43 ± 0.65^d %,22.39 ± 1.16^d %,inhibitory activity against COX-2 (in words) (ovine COX-2): nearly like that of the standard drug; inhibitory activity against COX-1 (in words) (ovine COX-1): nearly like that of the standard drug
"CC1=NN(c2nc(-c3cccnc3)cc(-c3cccs3)n2)C(=O)C1 [Compound 9, 3-methyl-1-(4-(pyridin-3-yl)-6-(thiophen-2-yl)pyrimidin-2-yl)-1H-pyrazol-5(4H)-one]",–,–,–,–,225 to 227,–,–,–,–,–,–,–,–,–,–,–,–
"O=C(O)Cc1ccccc1Nc1c(Cl)cccc1Cl [Diclofenac sodium, diclofenac sodium, reference compound]",–,–,–,–,–,–,–,–,–,–,–,–,–,–,–,–,"Inhibition percent of rat paw edema ([2]; standard drug, dose not given, 0 h after carrageenan): 0.49 ± 0.032^a %; Inhibition percent of rat paw edema ([2]; standard drug, dose not given, 1 h after carrageenan): 30.22 ± 1.27^a %; Inhibition percent of rat paw edema ([2]; standard drug, dose not given, 2 h after carrageenan): 33.85 ± 1.19^a %; Inhibition percent of rat paw edema ([2]; standard drug, dose not given, 3 h after carrageenan): 36.21 ± 0.93^a %; Inhibition percent of rat paw edema ([2]; standard drug, dose not given, 4 h after carrageenan): 41.10 ± 3.98^a %"

# Second part, led by results:
IC50 (μg/ml) for anti-lipid peroxidation (lipid peroxidation) [µg/mL],IC50 (μg/ml) for DPPH Scavenging [1] [µg/mL],COX-1/COX-2 selectivity index (ovine COX-2),IC50 (ovine COX-2) [µM],melting point [°C],IC50 (ovine COX-1) [µM],Compound,"Inhibition percent of rat paw edema [2, 3]","Inhibition percent of rat paw edema [2, 4]","Inhibition percent of rat paw edema [2, 5]","Inhibition percent of rat paw edema [2, 6]","Inhibition percent of rat paw edema [2, 7]","Inhibition percent of rat paw edema [2, 8]","Inhibition percent of rat paw edema [2, 9]","Inhibition percent of rat paw edema [2, 10]","Inhibition percent of rat paw edema [2, 11]","Inhibition percent of rat paw edema [2, 12]",also measured
25.72 ± 1.23,13.71 ± 0.75,–,–,–,–,"O=C1O[C@H]([C@@H](O)CO)C(O)=C1O [Ascorbic acid, reference compound]",–,–,–,–,–,–,–,–,–,–,–
22.53 ± 3.25,12.64 ± 0.41,9.13,0.44,220 to 225,4.02,"S=c1nc(-c2cccnc2)cc(-c2cccs2)[nH]1 [Compound 4, 4-(pyridin-3-yl)-6-(thiophen-2-yl) pyrimidine-2(1H)-thione]",0.46 ± 0.03^b %,18.91 ± 1.19^bc %,20.07 ± 1.43^e %,21.96 ± 1.25^d %,27.38 ± 1.68^c %,0.49 ± 0.01^ab %,21.43 ± 0.96^b %,26.27 ± 49^e %,33.13 ± 2.64^b %,37.15 ± 0.69^b %,scavenging activity towards the DPPH radicals (in words) [1]: higher scavenging activity towards the DPPH radicals than that of ascorbic acid
23.62 ± 2.31,14.61 ± 0.72,5.29,0.87,180 to 182,4.6,"NNc1nc(-c2cccnc2)cc(-c2cccs2)n1 [Compound 5, 1-(4-(pyridin-3-yl)-6-(thiophen-2-yl)pyrimidin-2-yl)hydrazine]",0.49 ± 0.01^a %,11.62 ± 1.24^de %,14.61 ± 1.81^g %,18.41 ± 1^e %,19.48 ± 0.89^e %,0.48 ± 0.01^ab %,15.41 ± 0.83^cd %,18.83 ± 0.75^ef %,24.19 ± 1.59^c %,28.59 ± 2.26^c %,inhibitory activity against COX-2 (in words) (ovine COX-2): nearly like that of the standard drug; inhibitory activity against COX-1 (in words) (ovine COX-1): nearly like that of the standard drug
–,–,–,–,190 to 192,–,"Cc1cc(=O)oc2c1c(C)nn2-c1nc(-c2cccnc2)cc(-c2cccs2)n1 [Compound 8, 3,4-dimethyl-1-(4-(pyridin-3-yl)-6-(thiophen-2-yl)pyrimidin-2-yl)pyrano[2,3-c]pyrazol-6(1H)-one]",–,–,–,–,–,–,–,–,–,–,–
